Converted amounts (≈) assume the structure as drawn.

Assay [1] deals with P. acnes clinical isolates (clindamycin resistant). Briefly: Antimicrobial susceptibility of clindamycin resistant P. acnes clinical isolates against various antibiotics (Table 2). The class given is cell-based. The note with it: for MIC: Cutibacterium acnes; for susceptibility of the strains as indicated by MIC values: all the clindamycin, erythromycin resistant strains of Table 2. An excerpt:
Various clinical isolates are obtained from patients carrying Clindamycin Resistant P. acnes and their antimicrobial susceptibility to fluoroquinolone antibiotics is studied vis-à-vis susceptibility to Clindamycin and Erythromycin.

A further assay has as its system P. acnes isolates. Briefly: Antimicrobial susceptibility patterns of P. acnes isolates against different antibiotics (Table 1). The assay is classed as cell-based. The note with it: Cutibacterium acnes. The source says: Table 1 below depicts the antimicrobial susceptibility patterns of P. acnes isolates against different antibiotics: […]
For the next assay, the system named is P. acnes. Particulars: in those receiving prolonged antibiotic therapy with the drug (Leyden et al 1983); cited from earlier work.
Where [2] appears, read: isolate V21A1, phylotype IA1, type IV, 23S rRNA A2059G.
[3] abbreviates: isolate V21A2, phylotype IB, type I, 23S rRNA A2058G.
The mark [4] stands for this setting: isolate V21A3, phylotype IB, type I, 23S rRNA A2058G.
The mark [5] stands for this setting: isolate V21A4, phylotype IB, type I, 23S rRNA A2058G.
The mark [6] stands for this setting: isolate V21A5, phylotype IA1, type IV, 23S rRNA A2059G.
Setting [7] is: isolate V21A6, phylotype IA1, type IV, 23S rRNA A2059G.
[8] abbreviates: isolate V21A7, phylotype IA1, type IV, 23S rRNA A2059G.
Where [9] appears, read: isolate V21A8, phylotype IA1, type IV, 23S rRNA A2059G.
Setting [10] is: isolate V21A9, phylotype IB, type I, 23S rRNA A2058G.
Setting [11] is: isolate V21A10, phylotype IB, type I, 23S rRNA A2058G.
Setting [12] is: isolate V21B2, phylotype IB, type I, 23S rRNA A2058G.
[13] abbreviates: isolate V21B4, phylotype IB, type I, 23S rRNA A2058G.
Where [14] appears, read: isolate V21B6, phylotype IB, type I, 23S rRNA A2058G.
Where [15] appears, read: isolate V21B7, phylotype IB, type I, 23S rRNA A2058G.
Where [16] appears, read: isolate V21B8, phylotype IB, type I, 23S rRNA A2058G.

The MIC is the lowest concentration found to suppress growth. For the molecule `N[C@@H]1CCCCN(c2c(F)cc3c(=O)c(C(=O)O)cn(C4CC4)c3c2Cl)C1` [Besifloxacin, besifloxacin], the minimum inhibitory concentration (MIC) in assay [1] (P. acnes strain V21A-7) was determined as 0.13 µg/mL (≈ 0.33 µM); in assay [1] (P. acnes strain V21B-1) it was 0.5 µg/mL (≈ 1.27 µM); in assay [1] (P. acnes strain V21B-2), 0.25 µg/mL (≈ 0.635 µM); in assay [1] (P. acnes strain V21B-3), 0.25 µg/mL (≈ 0.635 µM); in assay [1] (P. acnes strain V21B-4), 0.25 µg/mL (≈ 0.635 µM); in assay [1] (P. acnes strain V21B-5) it was 0.5 µg/mL (≈ 1.27 µM). The minimum inhibitory concentration (MIC) in assay [1] (P. acnes strain V21B-6), in assay [1] (P. acnes strain V21B-7) and in assay [1] (P. acnes strain V21B-8) was 0.25 µg/mL (≈ 0.635 µM) in each case. Further, in assay [1], the “susceptibility of the strains as indicated by MIC values” is on record as “susceptible”.
`CCC[C@@H]1C[C@@H](C(=O)N[C@@H]([C@H]2O[C@H](SC)[C@H](O)[C@@H](O)[C@H]2O)[C@H](C)Cl)N(C)C1` [Clindamycin, clindamycin]: the minimum inhibitory concentration (MIC) in the assay on P. acnes isolates (setting [2]) is 1 to 8 µg/mL (≈ 2.35 to 18.8 µM); against P. acnes isolates (setting [3]), 8 to 64 µg/mL (≈ 18.8 to 151 µM); with P. acnes isolates (setting [4]), 8 to 32 µg/mL (≈ 18.8 to 75.3 µM); with P. acnes isolates (setting [5]) it was 16 to 64 µg/mL (≈ 37.6 to 151 µM); with P. acnes isolates (setting [6]), 1 µg/mL (≈ 2.35 µM); against P. acnes isolates (setting [7]), 1 to 2 µg/mL (≈ 2.35 to 4.71 µM). The MIC with P. acnes isolates (setting [8]) was 0.5 to 2 µg/mL (≈ 1.18 to 4.71 µM); against P. acnes isolates (setting [9]), 1 to 2 µg/mL (≈ 2.35 to 4.71 µM); in the assay on P. acnes isolates (setting [10]), 16 to 32 µg/mL (≈ 37.6 to 75.3 µM); against P. acnes isolates (setting [11]) it was 16 to 64 µg/mL (≈ 37.6 to 151 µM); in the assay with P. acnes isolates (setting [12]), 16 to 64 µg/mL (≈ 37.6 to 151 µM); against P. acnes isolates (setting [13]) it was 32 to 64 µg/mL (≈ 75.3 to 151 µM). The minimal inhibitory concentration (MIC) against P. acnes isolates (setting [14]) was 16 to 64 µg/mL (≈ 37.6 to 151 µM); against P. acnes isolates (setting [15]), 16 to 64 µg/mL (≈ 37.6 to 151 µM); in the assay on P. acnes isolates (setting [16]) it was 16 to 64 µg/mL (≈ 37.6 to 151 µM); in assay [1] (P. acnes strain V21A-1) it was 1 to 8 µg/mL (≈ 2.35 to 18.8 µM); in assay [1] (P. acnes strain V21A-2) it was 8 to 64 µg/mL (≈ 18.8 to 151 µM); in assay [1] (P. acnes strain V21A-3), 8 to 32 µg/mL (≈ 18.8 to 75.3 µM). Moreover, the MIC in assay [1] (P. acnes strain V21A-5) is 1 µg/mL (≈ 2.35 µM); in assay [1] (P. acnes strain V21A-6), 1 to 2 µg/mL (≈ 2.35 to 4.71 µM); in assay [1] (P. acnes strain V21A-7) it was 0.5 to 2 µg/mL (≈ 1.18 to 4.71 µM); in assay [1] (P. acnes strain V21A-8), 1 to 2 µg/mL (≈ 2.35 to 4.71 µM); in assay [1] (P. acnes strain V21A-9), 16 to 32 µg/mL (≈ 37.6 to 75.3 µM); in assay [1] (P. acnes strain V21B-1), 64 µg/mL (≈ 151 µM). Besides, the minimum inhibitory concentration (MIC) in assay [1] (P. acnes strain V21B-2) is 16 to 64 µg/mL (≈ 37.6 to 151 µM); in assay [1] (P. acnes strain V21B-3) it was 64 µg/mL (≈ 151 µM); in assay [1] (P. acnes strain V21B-4), 32 to 64 µg/mL (≈ 75.3 to 151 µM); in assay [1] (P. acnes strain V21B-5) it was 1 to 4 µg/mL (≈ 2.35 to 9.41 µM); in assay [1] (P. acnes strain V21B-6), 16 to 64 µg/mL (≈ 37.6 to 151 µM); in assay [1] (P. acnes strain V21B-7), 16 to 64 µg/mL (≈ 37.6 to 151 µM). Besides, the minimal inhibitory concentration (MIC) in assay [1] (P. acnes strain V21B-8) lay within 16 to 64 µg/mL (≈ 37.6 to 151 µM).
As to `CC[C@H]1OC(=O)[C@H](C)[C@@H](O[C@H]2C[C@@](C)(OC)[C@@H](O)[C@H](C)O2)[C@H](C)[C@@H](O[C@@H]2O[C@H](C)C[C@H](N(C)C)[C@H]2O)[C@](C)(O)C[C@@H](C)C(=O)[C@H](C)[C@@H](O)[C@]1(C)O` [Erythromycin, erythromycin], the MIC lay within 50 to 200 µg/mL (≈ 68.1 to 273 µM) against P. acnes isolates (setting [2]); 50 to 200 µg/mL (≈ 68.1 to 273 µM) in the assay on P. acnes isolates (setting [3]); 100 to 200 µg/mL (≈ 136 to 273 µM) in the assay on P. acnes isolates (setting [4]); 100 to 200 µg/mL (≈ 136 to 273 µM) in the assay on P. acnes isolates (setting [5]); 100 to 200 µg/mL (≈ 136 to 273 µM) in the assay on P. acnes isolates (setting [6]); 100 to 200 µg/mL (≈ 136 to 273 µM) with P. acnes isolates (setting [7]). Also, the minimal inhibitory concentration (MIC) in the assay on P. acnes isolates (setting [8]) was 100 to 200 µg/mL (≈ 136 to 273 µM); with P. acnes isolates (setting [9]), 100 to 200 µg/mL (≈ 136 to 273 µM); against P. acnes isolates (setting [10]) it was 100 to 200 µg/mL (≈ 136 to 273 µM); against P. acnes isolates (setting [11]) it was 100 to 200 µg/mL (≈ 136 to 273 µM); in the assay on P. acnes isolates (setting [12]) it was greater than 200 µg/mL; in the assay on P. acnes isolates (isolate V21B3, phylotype IB, type I, 23S rRNA A2058G) it was greater than 200 µg/mL. The MIC with P. acnes isolates (setting [13]) was greater than 200 µg/mL; with P. acnes isolates (setting [14]), greater than 200 µg/mL; in the assay with P. acnes isolates (setting [15]), greater than 200 µg/mL; in the assay with P. acnes isolates (setting [16]) it was greater than 200 µg/mL; in assay [1] (P. acnes strain V21A-1) it was 50 to 200 µg/mL (≈ 68.1 to 273 µM); in assay [1] (P. acnes strain V21A-2), 50 to 200 µg/mL (≈ 68.1 to 273 µM). The minimal inhibitory concentration (MIC) in assay [1] (P. acnes strain V21A-3), in assay [1] (P. acnes strain V21A-4), in assay [1] (P. acnes strain V21A-5), in assay [1] (P. acnes strain V21A-6), in assay [1] (P. acnes strain V21A-7) and in assay [1] (P. acnes strain V21A-8) was 100 to 200 µg/mL (≈ 136 to 273 µM) throughout. The MIC in assay [1] (P. acnes strain V21A-9) was 100 to 200 µg/mL (≈ 136 to 273 µM); in assay [1] (P. acnes strain V21A-10), 100 to 200 µg/mL (≈ 136 to 273 µM); in assay [1] (P. acnes strain V21B-1) it was greater than 200 µg/mL; in assay [1] (P. acnes strain V21B-2), greater than 200 µg/mL; in assay [1] (P. acnes strain V21B-3) it was greater than 200 µg/mL; in assay [1] (P. acnes strain V21B-4) it was 200 µg/mL (≈ 273 µM). The MIC in assay [1] (P. acnes strain V21B-5), in assay [1] (P. acnes strain V21B-6), in assay [1] (P. acnes strain V21B-7) and in assay [1] (P. acnes strain V21B-8) was greater than 200 µg/mL each time. The “increase of average MIC” value in the assay with P. acnes is 100 fold.
Consider `C[C@H]1COc2c(N3CCN(C)CC3)c(F)cc3c(=O)c(C(=O)O)cn1c23` [Levofloxacin, levofloxacin], for which the MIC is less than 0.13 µg/mL in assay [1] (P. acnes strain V21A-1); less than 0.13 µg/mL in assay [1] (P. acnes strain V21A-5); less than 0.13 µg/mL in assay [1] (P. acnes strain V21A-8); 0.5 µg/mL (≈ 1.38 µM) in assay [1] (P. acnes strain V21B-1); 0.3 µg/mL (≈ 0.83 µM) in assay [1] (P. acnes strain V21B-2); 0.5 µg/mL (≈ 1.38 µM) in assay [1] (P. acnes strain V21B-3). In addition, the minimal inhibitory concentration (MIC) worked out at 0.5 µg/mL (≈ 1.38 µM) in assay [1] (P. acnes strain V21B-4); 0.5 µg/mL (≈ 1.38 µM) in assay [1] (P. acnes strain V21B-5); 0.5 µg/mL (≈ 1.38 µM) in assay [1] (P. acnes strain V21B-6); 0.3 µg/mL (≈ 0.83 µM) in assay [1] (P. acnes strain V21B-7); 0.5 µg/mL (≈ 1.38 µM) in assay [1] (P. acnes strain V21B-8).
For the molecule `CC1CCc2c(N3CCC(O)CC3)c(F)cc3c(=O)c(C(=O)O)cn1c23` (centres unmarked) [Nadifloxacin, nadifloxacin], the minimal inhibitory concentration (MIC) in assay [1] (P. acnes strain V21A-1) was less than 0.13 µg/mL; in assay [1] (P. acnes strain V21A-2), 0.3 µg/mL (≈ 0.832 µM); in assay [1] (P. acnes strain V21A-4) it was 0.3 µg/mL (≈ 0.832 µM); in assay [1] (P. acnes strain V21A-5) it was less than 0.13 µg/mL; in assay [1] (P. acnes strain V21A-6), 0.3 µg/mL (≈ 0.832 µM); in assay [1] (P. acnes strain V21A-8), less than 0.13 µg/mL. For the same molecule, the minimum inhibitory concentration (MIC) in assay [1] (P. acnes strain V21A-9) stood at 0.3 µg/mL (≈ 0.832 µM); in assay [1] (P. acnes strain V21A-10), 0.3 µg/mL (≈ 0.832 µM); in assay [1] (P. acnes strain V21B-1), 0.5 µg/mL (≈ 1.39 µM); in assay [1] (P. acnes strain V21B-2), 0.5 µg/mL (≈ 1.39 µM); in assay [1] (P. acnes strain V21B-3), 0.5 µg/mL (≈ 1.39 µM); in assay [1] (P. acnes strain V21B-4) it was 0.5 µg/mL (≈ 1.39 µM). For the same molecule, the minimal inhibitory concentration (MIC) in assay [1] (P. acnes strain V21B-5), in assay [1] (P. acnes strain V21B-6), in assay [1] (P. acnes strain V21B-7) and in assay [1] (P. acnes strain V21B-8) was 0.5 µg/mL (≈ 1.39 µM) throughout. For the same molecule, in assay [1], the “susceptibility of the strains as indicated by MIC values” is reported as “susceptible”.

Values taken from patent publication US20190119729A1, “METHOD OF DETECTING AND TREATING P. ACNES AND KIT THEREOF” (priority 2016, published 2019).
